In patent US5461045A, “Fused benzeneoxyacetic acid derivatives” (Ono Pharmaceutical Co., Ltd., priority 1992, dated 1995):

Assays:
PGI2 receptor = target: T1, PGI2 receptor (Homo sapiens, UniProt P43119); assay: Inhibitory activity against 3H-iloprost binding onto PGI2 receptor in human platelet membrane fraction; conditions: inhibition of 10 nM [3H]-iloprost specific binding; human platelet membranes 300 μg; 24° C., 30 min; pH 7.4
T1 construct: 300 μg of platelet plasma membranes; from tissue; host or cells: human platelets (plasma membranes)
Experimental: i) Inhibitory activity against ^3 H-iloprost onto PGI2 receptor in human platelet membrane fraction The binding assay was performed in 200 μl volumes containing 300 μg of platelet plasma membranes. The membranes were added to a buffer composed of 50 mM Tris-HCl (pH 7.4), 15 mM MgCl2, 5 mM EDTA with test compound and 10 nM [^3 H]-iloprost. The membranes were incubated at 24° C. for 30 min. After incubation, 4ml of ice-cold 10 mM Tris-HCl buffer (pH 7.4) was added to the reaction mixture, and filtered through Whatman GF/B glass fiber filter, and washed 4 times with 4 ml of ice-cold 10 mM Tris-HCl buffer (pH 7.4) to separate bound and free [^3 H]-iloprost. After washing, the filter was dried and radioactivity was counted. Non-specific binding was obtained by performing parallel binding experiments in the presence of 10 μM non-labelled iloprost. Specific binding was calculated by subtracting the non-specific binding from the total binding. The inhibitory effect of test compound was calculated from the following equation. The percentage of inhibition (%)=100-(B1 /B0 ×100) B1 : specific [^3 H]-iloprost binding in presence of test compound B0 : specific [^3 H]-iloprost binding in absence of test compound

[1] = tested on: Human platelet aggregation; assay: Inhibitory effect on human platelet aggregation (ADP-induced, platelet-rich plasma); type: cell-based; conditions: compound added 1 min prior to ADP (4 μM)
Experimental: | ii) Inhibitory effect on Human platelet aggregation Method of | experiment Platelet-rich plasma was prepared from human blood (5×10^5 platelets/mm^3), and the test compound was added to PRP 1 min prior to the addition of ADP (4 μM). The aggregation was monitored using a platelet aggregometer (NBS HEMA TRACER 601, Niko Bioscience, Japan).

T1 sequence (P43119 whole entry): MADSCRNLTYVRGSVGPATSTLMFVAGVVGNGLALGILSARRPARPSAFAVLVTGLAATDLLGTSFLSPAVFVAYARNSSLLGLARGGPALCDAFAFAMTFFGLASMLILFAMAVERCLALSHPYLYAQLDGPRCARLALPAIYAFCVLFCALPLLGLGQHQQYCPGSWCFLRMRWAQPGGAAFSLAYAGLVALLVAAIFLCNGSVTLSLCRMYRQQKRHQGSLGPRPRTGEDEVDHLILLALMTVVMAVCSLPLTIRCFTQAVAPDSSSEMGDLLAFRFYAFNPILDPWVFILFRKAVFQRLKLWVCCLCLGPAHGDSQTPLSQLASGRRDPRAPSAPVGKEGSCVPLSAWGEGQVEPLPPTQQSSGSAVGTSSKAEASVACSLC

Structure (SMILES): O=C(O)COc1cccc2c1CCC(CCC=NOC(c1ccccc1)c1ccccc1)C2 (stereo not drawn) [Example 4, [2-(3-Diphenylmethyloxyiminopropyl)-1,2,3,4-tetrahydro-naphthalen-5-yloxy]acetic acid]
- IC50 (PGI2 receptor): 2500 nM

Structure (SMILES): O=C(O)COc1cccc2c1CCCC2CC=NOC(c1ccccc1)c1ccccc1 (stereo not drawn) [3(a)]
- IC50 (PGI2 receptor): 5400 nM

Structure (SMILES): CCCCCC(ON=C(C)CC1CCc2c(cccc2OCC(=O)O)C1)c1ccccc1 (stereo not drawn) [6(r)]
- IC50 (PGI2 receptor): 2700 nM

Structure (SMILES): CCOC(=O)COc1cccc2c1CCC(CC(C)=NOC(c1ccccc1)c1ccccc1)C2 (stereo not drawn) [Example 5, [2-(2-Diphenylmethyloxyiminopropyl)-1,2,3,4-tetrahydro-naphthalen-5-yloxy]acetic acid ethyl ester]
- IC50 (PGI2 receptor): 7000 nM

Structure (SMILES): COc1ccc(C(ON=C(C)CC2CCc3c(cccc3OCC(=O)O)C2)c2ccc(OC)cc2)cc1 (stereo not drawn) [6(j)]
- IC50 (PGI2 receptor): 1800 nM

Structure (SMILES): O=C(O)COc1cccc2c1CCC2CC=NOC(c1ccccc1)c1ccccc1 (stereo not drawn) [3(e)]
- IC50 (PGI2 receptor): 3600 nM

Structure (SMILES): O=C(O)COc1cccc2c1CCC(CCNOC(c1ccccc1)c1ccccc1)C2 (stereo not drawn) [Example 8, [2-(2-Diphenylmethyloxyaminoethyl)-1,2,3,4-tetrahydro-naphthalen-5-yloxy]acetic acid]
- IC50 (PGI2 receptor): 4000 nM

Structure (SMILES): CC(CC1CCc2c(cccc2OCC(=O)O)C1)=NOC(c1ccccc1)c1ccncc1 (stereo not drawn) [6(g)]
- IC50 (PGI2 receptor): 700 nM

Structure (SMILES): O=C(O)COc1cccc2c1CCC(CC=NOC(c1ccccc1)c1ccccc1)C2 (stereo not drawn) [Example 3, [2-(2-Diphenylmethyloxyiminoethyl)-1,2,3,4-tetrahydro-naphthalen-5-yloxy]acetic acid]
- IC50 (PGI2 receptor): 890 nM
- IC50 [1]: 500 nM

Structure (SMILES): CCC(CC1CCc2c(cccc2OCC(=O)O)C1)=NOC(c1ccccc1)c1ccccc1 (stereo not drawn) [6(m)]
- IC50 (PGI2 receptor): 270 nM
- IC50 [1]: 71 nM

Structure (SMILES): CC(CC1CCc2c(cccc2OCC(=O)O)C1)=NOC(c1ccccc1)c1cccnc1 (stereo not drawn) [6(h)]
- IC50 (PGI2 receptor): 1300 nM
- IC50 [1]: 1100 nM

Structure (SMILES): O=C(O)COc1cccc2c1CCC(CC(=NOC(c1ccccc1)c1ccccc1)c1ccccc1)C2 (stereo not drawn) [6(p)]
- IC50 (PGI2 receptor): 2800 nM

Structure (SMILES): CCCC(CC1CCc2c(cccc2OCC(=O)O)C1)=NOC(c1ccccc1)c1ccccc1 (stereo not drawn) [6(n)]
- IC50 (PGI2 receptor): 270 nM
- IC50 [1]: 120 nM

Structure (SMILES): CC(CC1CCc2c(cccc2OCC(=O)O)C1)=NOCc1ccccc1 (stereo not drawn) [6(l)]
- IC50 (PGI2 receptor): 1400 nM

Structure (SMILES): CC(CC1CCc2c(cccc2OCC(=O)O)C1)=NOC(c1ccccc1)C1CCCCC1 (stereo not drawn) [6(s)]
- IC50 (PGI2 receptor): 9600 nM

Structure (SMILES): CC(CC1CCc2c(cccc2OCC(=O)O)C1)=NOC(c1ccccc1)c1ccc(Cl)cc1 (stereo not drawn) [6(k)]
- IC50 (PGI2 receptor): 300 nM

Structure (SMILES): CC(C)C(CC1CCc2c(cccc2OCC(=O)O)C1)=NOC(c1ccccc1)c1ccccc1 (stereo not drawn) [6(o)]
- IC50 (PGI2 receptor): 2300 nM

Structure (SMILES): O=C(O)COc1cccc2c1CCCC(C=NOC(c1ccccc1)c1ccccc1)C2 (stereo not drawn) [Example 9]
- IC50 (PGI2 receptor): 1900 nM

Structure (SMILES): CC(CC1CCc2c(cccc2OCC(=O)O)C1)=NOC(c1ccccc1)c1ccccc1 (stereo not drawn) [Example 6, [2-(2-Diphenylmethyloxyiminopropyl)-1,2,3,4-tetrahydro-naphthalen-5-yloxy]acetic acid]
- IC50 (PGI2 receptor): 280 nM
- IC50 [1]: 240 nM

Structure (SMILES): CC(CC1CCc2c(cccc2OCC(=O)O)C1)=NOC(c1ccc(F)cc1)c1ccc(F)cc1 (stereo not drawn) [6(e)]
- IC50 (PGI2 receptor): 480 nM

Structure (SMILES): CC(CC1CCc2c(cccc2OCC(=O)O)C1)=NOC(c1ccccc1)c1ccccn1 (stereo not drawn) [6(i)]
- IC50 (PGI2 receptor): 1800 nM

Structure (SMILES): CC(CC1CCc2c(cccc2OCC(=O)O)C1)=NOC(c1ccccc1)c1ccc([N+](=O)[O-])cc1 (stereo not drawn) [6(f)]
- IC50 (PGI2 receptor): 1000 nM
